# Target: T1, Pnao (pseudooxynicotine amine oxidase) (Pseudomonas putida, UniProt F8G0P1)
# T1 construct: signal peptide removed (from Ala45 onward); N-terminal His-SUMO tag cleaved with ULP1; pET28a, E. coli BL21 (DE3); FAD-containing homodimer
# Experiment: X-ray crystal structure, […] Å
# Format: binding
# Details: crystals pH 9; oxidized FAD at the active site
# T1 sequence (F8G0P1 45-496): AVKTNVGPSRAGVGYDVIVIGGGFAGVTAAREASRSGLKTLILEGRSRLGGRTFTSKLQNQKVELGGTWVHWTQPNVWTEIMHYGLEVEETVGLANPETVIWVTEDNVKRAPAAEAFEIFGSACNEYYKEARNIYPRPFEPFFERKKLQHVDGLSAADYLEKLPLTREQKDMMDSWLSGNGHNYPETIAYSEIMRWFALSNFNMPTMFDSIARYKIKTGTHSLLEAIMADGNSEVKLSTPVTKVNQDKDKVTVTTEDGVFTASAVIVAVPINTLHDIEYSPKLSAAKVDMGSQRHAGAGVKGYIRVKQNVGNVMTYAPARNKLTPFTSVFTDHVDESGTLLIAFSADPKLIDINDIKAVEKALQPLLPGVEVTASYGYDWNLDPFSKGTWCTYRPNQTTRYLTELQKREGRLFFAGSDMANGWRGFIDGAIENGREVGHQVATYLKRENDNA
smiles,measurement,value
Cc1cc2nc3c(=O)[nH]c(=O)nc-3n(C[C@H](O)[C@H](O)[C@H](O)COP(=O)(O)OP(=O)(O)OC[C@H]3O[C@@H](n4cnc5c(N)ncnc54)[C@H](O)[C@@H]3O)c2cc1C [flavin adenine dinucleotide],"X-ray crystal structure, 2.60 Å",Our structure of Pnao contained oxidized FAD
